Data on 21 molecules can be found in PubChem BioAssay (NCI).

Common to all, as to assay: inhibition of tumour cell growth, NCI panel, 48 h
For assay [1], the system named is 786-0 renal.
The subject of assay [2] is DU-145 prostate.
Assay [3] deals with HT29 colon.
Assay [4] concerns IGROV1 ovarian.
The subject of assay [5] is MDA-MB-231 breast.
For assay [6], the system named is NCI-H23 lung.
The subject of assay [7] is NCI/ADR-RES ovarian.
Assay [8] deals with OVCAR-4 ovarian.
Assay [9] has as its system RXF 393 renal.
The test system of assay [10] is SK-MEL-2 melanoma.
Assay [11] has as its system SK-MEL-5 melanoma.
Assay [12] deals with SN12C renal.
Assay [13] has as its system UACC-257 melanoma.

Where “and” joins values, the source holds several entries; their conditions need not be identical. Identical values can stand only once.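 Method: 48-hour compound exposure of cells in 96-well plates, five concentrations, linear interpolation of endpoints. GI50 = concentration required for 50% inhibition of growth. TGI: total growth inhibition.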

Consider `NNc1nnc(CCCCCCCCc2nnc(NN)n2N)n1N`, for which the TGI in [1], in [2], in assay [3], in [4], in assay [5] and in assay [6] was greater than 100 µM each time. Also, the TGI in [7], in assay [8], in [9], in [10], in assay [11] and in assay [12] was greater than 100 µM throughout. In addition, in assay [13], the TGI is greater than 100 µM.

In the case of `CC(=O)c1ccc(Nc2c3c(nc4ccccc24)CCCC3)cc1`, the TGI in [1] was greater than 100 µM; in [2], greater than 65 µM; in assay [3] it was 42.6 µM; in [4], 23.8 µM; in [5], greater than 100 µM; in assay [6], 43.4 µM. Moreover, the TGI in assay [7] was 56.2 µM; in [8], greater than 100 µM; in assay [9], 72.4 µM; in assay [10] it was greater than 100 µM; in [11], greater than 59.2 µM; in assay [12], greater than 100 µM. The same molecule displayed a TGI in assay [13] greater than 74 µM.

Turning to `CCOc1cnc(C(O)(c2ccccc2)c2ccccc2)o1`, the TGI in assay [1], in assay [2], in assay [3], in [4], in assay [5] and in assay [6] was greater than 100 µM throughout. The TGI in assay [7], in assay [8], in [9], in assay [10], in assay [11] and in assay [12] was greater than 100 µM throughout. This molecule also yielded a TGI in assay [13] greater than 100 µM.

Take `COC(=O)[C@H](Cc1ccccc1)NC(=O)c1ccc(CNC(=O)/C=C/c2csc(-c3ccccc3)n2)cc1`: the TGI in assay [1] is 21 µM; in [2], greater than 74.6 µM; in assay [3], 43.1 µM; in assay [4], greater than 23.2 µM; in assay [5], 57.7 µM; in [6] it was greater than 87.4 µM. Also, the TGI in assay [7] was greater than 91.7 µM; in assay [8], greater than 71 µM; in assay [9], 26.8 µM; in assay [10] it was 9.1 µM; in [11] it was 14.7 µM; in [12], 46.2 µM. In addition, the TGI in assay [13] is 7.72 µM.

Regarding `N#Cc1ccccc1OCCOc1ccccc1C#N`, the TGI in [1], in assay [2], in [3], in assay [4], in assay [5] and in [6] was greater than 100 µM throughout. Further, the TGI in [7], in assay [8], in [9], in [10], in assay [11] and in assay [12] was greater than 100 µM in each case. This molecule came in with a TGI in [13] greater than 100 µM.

For `Cn1c2ccccc2c(=O)c2c(O)cc3c(c21)C1OCC(C)(O)C1O3` (stereo not given), the TGI in assay [1] was greater than 100 µM; in [2] it was greater than 100 µM; in assay [3], greater than 100 µM; in assay [4], 79.7 µM; in assay [5], greater than 100 µM; in assay [7] it was greater than 100 µM. Besides, the TGI in [8] is greater than 100 µM; in assay [9] it was 69 µM; in assay [10], greater than 100 µM; in assay [11], greater than 100 µM; in assay [12] it was greater than 100 µM; in [13], greater than 100 µM.

Consider `C=CCON(C(=O)OC(C)(C)C)C(C)(C)C`, for which the TGI in [1], in assay [2], in assay [3], in assay [4], in assay [5] and in assay [6] was greater than 100 µM each time. Also, the TGI in assay [7], in assay [8], in assay [9], in assay [10], in assay [11] and in assay [13] was greater than 100 µM each time.

With `COC(=O)[C@@H]1CO[C@H](C(C)(C)C)N1C(=O)N1C=CC(=O)C[C@H]1C`, the TGI in [1], in [2], in assay [3], in [4], in [5] and in [6] was greater than 100 µM throughout. The TGI in [7], in [9], in [10], in assay [11], in [12] and in assay [13] was greater than 100 µM throughout.

On to `O=C(Nn1c(-c2ccccc2)nc2ccccc2c1=O)c1ccc(Cl)cc1`, for which the TGI in [1], in [2], in assay [3], in assay [4], in assay [5] and in assay [6] was greater than 100 µM throughout. In addition, the TGI in [7], in assay [8], in [9], in [11], in [12] and in [13] was greater than 100 µM in each case.

For `COc1cc(C2c3cc4c(cc3OC(NN)C2C)OCO4)cc(OC)c1O` (stereo not given), the TGI was greater than 100 µM in [1]; greater than 100 µM in assay [2]; greater than 100 µM in assay [4]; 84.9 µM in assay [5]; greater than 100 µM in assay [6]; 94 µM in assay [7]. Also, the TGI in [8] is greater than 100 µM; in assay [9] it was greater than 100 µM; in [10], 13.1 µM; in assay [11] it was 12.7 µM; in assay [12], 62.2 µM; in assay [13] it was 93 µM.

Take `CC1(C)O[C@@H]2[C@@H](COC(C)(C)O[C@H]2C2SCCCS2)O1`: the TGI in [1], in assay [2], in [3], in [5], in assay [6] and in assay [7] was greater than 100 µM throughout. The TGI in assay [8], in assay [9], in assay [10], in [11] and in assay [12] was greater than 100 µM in each case.

For the molecule `COC(=O)/C=C(\C(=O)OC)c1cc(C)c2cc(C(C)C)ccc(C)c1-2`, the TGI in assay [1] was greater than 100 µM; in [2], greater than 100 µM; in assay [3] it was 26.7 µM; in assay [4] it was greater than 100 µM; in [5], greater than 100 µM; in [6], greater than 100 µM. The TGI was greater than 100 µM in [7]; greater than 100 µM in assay [8]; greater than 100 µM in assay [9]; greater than 100 µM in assay [10]; 80 µM in [11]; greater than 100 µM in assay [12].

For the molecule `Cc1cc(O)c(/C=N/C(N)=S)c(=O)o1`, the TGI in assay [1], in [2], in [4], in assay [5], in assay [6] and in [7] was greater than 100 µM in each case. The TGI in [8], in assay [9], in assay [10], in assay [11], in assay [12] and in assay [13] was greater than 100 µM each time.

As to `COc1ccc(-c2oc3cc(-c4cc5oc(-c6ccc(OC)cc6)c(-c6ccc(OC)cc6)c5cc4OC)c(OC)cc3c2-c2ccc(OC)cc2)cc1`, the TGI in [1], in [2], in assay [3], in [4], in assay [5] and in assay [6] was greater than 100 µM throughout. Besides, the TGI in assay [7], in assay [8], in assay [9], in assay [11], in [12] and in assay [13] was greater than 100 µM in each case.

On to `N#Cc1sc2nc3ccccc3n2c1N`, for which the TGI in assay [1], in assay [2], in [3], in assay [4], in assay [5] and in assay [6] was greater than 100 µM each time. Further, the TGI in assay [7] is greater than 100 µM; in assay [8], greater than 100 µM; in [9] it was 67.6 µM; in assay [10], 81.7 µM; in assay [11] it was greater than 100 µM; in [13], greater than 100 µM.

As for `NC1=NC2(COC(c3ccccc3)(c3ccccc3)c3ccccc3)OC(COC(c3ccccc3)(c3ccccc3)c3ccccc3)C(O)C2O1` (stereo not given), the TGI in assay [1], in assay [2], in assay [3], in assay [4], in [5] and in assay [6] was greater than 100 µM each time. For the same molecule, the TGI in assay [7] was greater than 100 µM; in assay [9] it was greater than 100 µM; in [10], 85.5 µM; in assay [11] it was greater than 100 µM; in assay [12] it was greater than 100 µM; in [13], greater than 100 µM.

As for `O=[N+]([O-])c1ccc(/C=N/Nc2nc3ccccc3[nH]2)o1`, the TGI in [1] is greater than 100 µM; in assay [2], 27.1 µM; in assay [3], 68 µM; in assay [4], 26.7 µM; in assay [5] it was 70.9 µM; in [6] it was 43.6 µM. For the same molecule, the TGI was greater than 100 µM in assay [7]; 21.6 µM in assay [8]; 28.2 µM in assay [9]; 14.3 µM in assay [11]; 32.6 µM in [12]; greater than 100 µM in assay [13].

On to `CCN1/C(=C/C#C/C(C)=C\c2sc3ccc(Cl)cc3[n+]2CC)Sc2ccc(Cl)cc21`, for which the TGI worked out at 15.1 µM in [1]; 15.5 µM in [2]; 14 µM in assay [3]; 14.5 µM in [4]; 19.7 µM in [5]; 80.4 µM in [7]. Further, the TGI is greater than 100 µM in assay [8]; 21.3 µM in assay [9]; 4.85 µM in assay [10]; 5.26 µM in assay [11]; 16.1 µM in [12]; 22 µM in assay [13].

As to `COc1cc([C@@H]2c3cc4c(cc3[C@@H](Nc3ccc(NC(=O)c5cc([N+](=O)[O-])cn5C)cc3)[C@H]3COC(=O)[C@H]23)OCO4)cc(OC)c1O`, the TGI in assay [1] is 0.29 µM and 0.261 µM; in assay [2] it was 0.0772 µM and 0.0578 µM; in [3], 1.33 µM; in assay [5], 17.3 µM and 14.6 µM; in [6] it was 4.04 µM and 0.546 µM; in [7] it was greater than 31.6 µM. Besides, the TGI in assay [8] was greater than 100 µM; in [9], greater than 100 µM; in [11], 0.183 µM and 0.316 µM; in [12], 0.262 µM and 0.437 µM; in assay [13], greater than 65.5 µM. For the same molecule, the GI50 is 1.34 µM and 4.74 µM in assay [5]; 2.17 µM in assay [7]; 11.6 µM and 4.09 µM in assay [8]; 0.0291 µM and 0.0847 µM in assay [11]; 0.0231 µM and 0.055 µM in assay [12].

For the molecule `CCOC(=O)c1c(NC(=O)c2ccccc2)c(C#N)c2n1CCCCC2`, the TGI in [1], in assay [2], in [3], in assay [4], in assay [5] and in assay [6] was greater than 100 µM each time. Also, the TGI in [7], in [8], in [9], in [11], in assay [12] and in assay [13] was greater than 100 µM throughout.

With `Cc1ccc(S(=O)(=O)N(CC(O)COc2ccccc2)c2c(F)cccc2F)cc1` (stereo not given), the TGI in assay [1] was 42.1 µM; in assay [2], greater than 100 µM; in assay [3], 36.3 µM; in assay [5], 43.8 µM; in assay [6] it was 44.8 µM; in assay [7] it was 43.1 µM. Moreover, the TGI in assay [8] is 31.7 µM; in assay [9], 26.1 µM; in assay [10], 32.5 µM; in assay [11] it was 27.2 µM; in assay [12], 47.8 µM; in [13] it was 44.5 µM.
